“Also recorded” adds a separate entry of the source. Square brackets hold non-standard residues; d marks the D form. Primed or numbered codes have the meaning given here. Ends that are not written are not given here. Cy5″ = Cy5 dye, coupled as maleimide to the C-terminal Cys; Abu = CC[C@H](N)C(=O)O; Cy5 = Cy5 label
How the values were obtained:
F98 cell line = experiment: Confocal microscopy of peptide penetration in F98 cell line, comparison with Tat; assay type: cell-based, rat
Procedure: (§1) For analysis of the subcellular localization of MCa-Cy5 analogues in living cells, cell cultures were incubated with the fluorescent peptides for 2 hrs, and then washed with phosphate-buffered saline (PBS) alone. The plasma membrane was stained with 5 μg/ml rhodamine-conjugated concanavalin A (MOLECULAR PROBES) for 5 min. Cells were washed once more. Live cells were then immediately analyzed by confocal laser scanning microscopy using a Leica TCS-SPE operating system. Rhodamine (580 nm) and Cy5 (670 nm) were sequentially excited and emission fluorescence were collected in z-confocal planes of […] steps.
(§2) Cy5-labeled peptides derived from MCaUF1-9 were synthesized and assayed by confocal microscopy or flow cytometry as described in example 1.

F98 rat glioma cell line = experiment: Flow cytometry of dose-dependent cell penetration in F98 cells; assay type: cell-based; settings: Cy5-labeled peptides
Procedure: (§3) Chinese hamster ovary (CHO) and F98 rat glioma cell lines (from ATCC) were maintained at 37° C. in 5% CO2 in F-12K nutrient medium (INVITROGEN) supplemented with 10% (v/v) heat-inactivated fetal bovine serum (INVITROGEN) and 10,000 units/ml streptomycine and penicillin (INVITROGEN) for the CHO cells, and 2% heat-inactivated fetal bovine serum and 100 units/ml streptomycine and penicillin for the F98 cells
(§4) CHO and F98 cells were incubated with various concentrations of Cy5-labeled peptides in F-12K culture medium without serum at 37° C. for 2 hrs. The cells were then washed with PBS to remove excess extracellular peptide and treated with 1 mg/ml trypsin (INVITROGEN) for 5 min at 37° C. to detach cells from the surface, and centrifuged at 200 g before suspension in PBS. For experiments with the macropinocytosis inhibitor, amiloride, CHO cells were initially washed with F-12K and preincubated for 30 min at 37° C. with 1 mM amiloride (SIGMA). The cells were then incubated for 2 hrs at 37° C. with 1 μM of the Cy5-MCa analogues. For all these experimental conditions, flow cytometry analyses were performed with live cells using a Becton Dickinson flow cytometer LSR II or an Accuri® flow cytometer (BD BIOSCIENCES). Data were obtained and analyzed using FCS express software (DE NOVO) or Accuri® proprietary software CFlow sampler. Live cells were gated by forward/side scattering from a total of 10,000 events.
as §2

CHO cells [1] = experiment: Flow cytometry of cell penetration of Cy5-labeled peptides in CHO cells; assay type: cell-based, Chinese hamster; settings: for dose-dependent cell penetration: concentrations up to 33 μM; for cell penetration (fluorescence accumulation within cells): 2 hrs incubation, 3 μM peptide, trypsin treatment
Procedure: Each peptide was labeled with Cy5 according to the manufacturer's protocol (GE HEALTHCARE). Peptides were dissolved at 1 mg/ml in 0.1 M Na2CO3 buffer, pH 9.3. 300 μl of the solubilized peptides were added to Cy5-maleimide containing tubes. The mixtures were incubated during 2 hrs at room temperature and then purified by HPLC using an analytical Vydac C18 column. Elution of the Cy5-labeled peptides was performed with a 10-60% acetonitrile linear gradient containing 0.1% trifluoroacetic acid. The pure peak fractions were lyophilized and peptides quantified by UV spectrophotometer at 649 nm.
as §3, §4

CHO cells [2] = experiment: Confocal microscopy of subcellular localization of Cy5-labeled peptides in living CHO cells (rhodamine-concanavalin A membrane stain); assay type: cell-based, Chinese hamster; settings: 2 hrs; for Cy5-positive pixels rhodamine-positive (colocalization with the plasma membrane indicator): FIG. 3; for Rhodamine-positive staining also Cy5-positive (pixels): Cy5/rhodamine colocalization
Procedure: as §1

CHO cells [3] = experiment: Amiloride sensitivity of peptide cell entry (macropinocytosis inhibition), flow cytometry; assay type: cell-based, Chinese hamster; settings: for inhibition of cell penetration by amiloride: 2 hrs, peptide with or without 5 mM amiloride (FIG. 4A); for amiloride-sensitivity of cell penetration: Cy5 as cargo, flow cytometry (FIG. 4)
Procedure: as §4, with “For experiments with the macropinocytosis inhibitor, amiloride, CHO cells were initially washed with F-12K and preincubated for 30 min at 37° C. with 1 mM amiloride (SIGMA). The cells were then incubated for 2 hrs at 37° C. with 1 μM of the Cy5-MCa analogues.” left out

## GDWLPHLKL (MCa1-9, C3W variant) [MCaUF1-9(W3)]
F98 cell line; 1 μM peptide
  penetration compared with 3 μM Tat: proved better CPP than Tat at 3 μM
F98 rat glioma cell line
  cell penetration (CPP efficiency): ones of the best performing CPPs

## GDaLPHLKL (GD[Abu]LPHLKL) [MCaUF1-9]
F98 cell line; 3 μM peptide
  penetration compared with 3 μM Tat: proved better CPP than Tat at 3 μM
F98 rat glioma cell line
  cell penetration (CPP efficiency): ones of the best performing CPPs
CHO cells [1]; 2 hrs
  dose-dependent cell penetration: penetrates better at low concentration

## GDaLPHLKLC (GD[Abu]LPHLKLC) [MCaUF1-9-C]
CHO cells [1]
  cell penetration (fluorescence accumulation within cells): showed CPP properties; also recorded: better CPP than MCaUF1-15-C

## GDaLPHLKLaKENKDC (GD[Abu]LPHLKL[Abu]KENKDC) [MCaUF1-15-C]
CHO cells [1]
  cell penetration (fluorescence accumulation within cells): showed CPP properties

## GDaWPHLKL (GD[Abu]WPHLKL) [MCaUF1-9(Abu3-W4)]
F98 cell line; 1 μM peptide
  penetration compared with 3 μM Tat: proved better CPP than Tat at 3 μM

## GTNIEKRaRC (GTNIEKR[Abu]RC) [MCaUF25-33-C]
CHO cells [1]
  cell penetration (fluorescence accumulation within cells): have also CPP properties

## KDaaSKKaKRRG (KD[Abu][Abu]SKK[Abu]KRRG) [MCaUF14-25]
CHO cells [1]; 2 hrs
  dose-dependent cell penetration: yields the greatest cell entry of the dye

## KDalKHLQR (KD[Abu]IKHLQR) [HadUF3-11]
F98 rat glioma cell line
  cell penetration (CPP efficiency): ones of the best performing CPPs
F98 rat glioma cell line; listed as HadUF3-9(Abu5)
  cell penetration (CPP efficiency): perform better as CPP than the maurocalcine derived peptide MCaUF1-9(Abu3)

## MCaUF1-9-C-Cy5: MCaUF1-9-C (SEQ ID NO: 136, GDaLPHLKLC) labeled with Cy5 (GD[Abu]LPHLKLC(Cy5″))
CHO cells [2]
  Cy5-positive pixels rhodamine-positive (colocalization with the plasma membrane indicator): higher values of colocalization
CHO cells [2]; confocal microscopy
  intracellular / plasma membrane distribution: dots appear at higher concentrations within one pole of the cell
CHO cells [1]; 2 hrs
  concentration with detectable cell penetration: 10 nM
  dose-dependent cell penetration: best performing peptide for cell penetration at low concentrations

## MCaUF1-15-C-Cy5: MCaUF1-15-C (SEQ ID NO: 135) labeled with Cy5 (GD[Abu]LPHLKL[Abu]KENKDC(Cy5″))
CHO cells [3]
  inhibition of cell penetration by amiloride: 39%
  amiloride-sensitivity of cell penetration: higher amiloride-sensitivity than MCaUF1-33-C-Cy5

## MCaUF1-20-C-Cy5: MCaUF1-20-C (SEQ ID NO: 134) labeled with Cy5 (GD[Abu]LPHLKL[Abu]KENKD[Abu][Abu]SKKC(Cy5″))
CHO cells [2]
  Cy5-positive pixels rhodamine-positive (colocalization with the plasma membrane indicator): 30.4±1.4%
CHO cells [1]; 2 hrs
  dose-dependent cell penetration: performing as well as MCaUF8-33-C-Cy5

## MCaUF1-33-C-Cy5: MCaUF1-33-C (SEQ ID NO: 140) labeled with Cy5 on the C-terminal Cys (GD[Abu]LPHLKL[Abu]KENKD[Abu][Abu]SKK[Abu]KRRGTNIEKR[Abu]RC(Cy5))
CHO cells [2]
  Cy5-positive pixels rhodamine-positive (colocalization with the plasma membrane indicator): 10.1±2.6%
CHO cells [2]; confocal microscopy
  degree of accumulated cell fluorescence: penetrate the least
CHO cells [1]
  cell penetration (fluorescence accumulation within cells): penetrated efficiently within CHO cells
CHO cells [1]; 2 hrs
  dose-dependent cell penetration: least-performing cell penetrating peptide
CHO cells [3]
  inhibition of cell penetration by amiloride: 19.6%

## MCaUF8-33-C-Cy5: MCaUF8-33-C (SEQ ID NO: 141) labeled with Cy5 (KL[Abu]KENKD[Abu][Abu]SKK[Abu]KRRGTNIEKR[Abu]RC(Cy5″))
CHO cells [2]; confocal microscopy
  intracellular / plasma membrane distribution: dots appear at higher concentrations within one pole of the cell
CHO cells [1]; 2 hrs
  dose-dependent cell penetration: did not show any sign of saturation; also recorded: no saturation of cell entry

## MCaUF11-33-C-Cy5: MCaUF11-33-C (SEQ ID NO: 142) labeled with Cy5 (KENKD[Abu][Abu]SKK[Abu]KRRGTNIEKR[Abu]RC(Cy5″))
CHO cells [2]
  Cy5-positive pixels rhodamine-positive (colocalization with the plasma membrane indicator): 21.3±2.6%
CHO cells [2]; confocal microscopy
  intracellular / plasma membrane distribution: dots appear at higher concentrations within one pole of the cell
CHO cells [3]
  amiloride-sensitivity of cell penetration: higher amiloride-sensitivity than MCaUF1-33-C-Cy5

## MCaUF14-25-C-Cy5: MCaUF14-25-C (SEQ ID NO: 139) labeled with Cy5 (KD[Abu][Abu]SKK[Abu]KRRGC(Cy5″))
CHO cells [2]; confocal microscopy
  intracellular / plasma membrane distribution: sub-plasma membrane rim localization was more evident
CHO cells [1]; 2 hrs
  dose-dependent cell penetration: yields the greatest fluorescence accumulation
CHO cells [3]
  amiloride-sensitivity of cell penetration: higher amiloride-sensitivity than MCaUF1-33-C-Cy5

## MCaUF14-33-C-Cy5: MCaUF14-33-C (SEQ ID NO: 143) labeled with Cy5 (KD[Abu][Abu]SKK[Abu]KRRGTNIEKR[Abu]RC(Cy5″))
CHO cells [2]
  Rhodamine-positive staining also Cy5-positive (pixels): best performing
  Cy5-positive pixels rhodamine-positive (colocalization with the plasma membrane indicator): higher values of colocalization

## MCaUF18-33-C-Cy5: MCaUF18-33-C (SEQ ID NO: 137) labeled with Cy5 (SKK[Abu]KRRGTNIEKR[Abu]RC(Cy5″))
CHO cells [2]
  Rhodamine-positive staining also Cy5-positive (pixels): best performing
CHO cells [1]; 2 hrs
  dose-dependent cell penetration: performed drastically better than the other truncated peptides
CHO cells [3]
  amiloride-sensitivity of cell penetration: enhance rather than inhibit the cell penetration

## MCaUF20-33-C-Cy5: MCaUF20-33-C (SEQ ID NO: 144) labeled with Cy5 (K[Abu]KRRGTNIEKR[Abu]RC(Cy5″))
CHO cells [2]
  Rhodamine-positive staining also Cy5-positive (pixels): best performing
CHO cells [2]; confocal microscopy
  intracellular / plasma membrane distribution: Diffuse membrane labeling
CHO cells [3]
  amiloride-sensitivity of cell penetration: enhance rather than inhibit the cell penetration

## MCaUF22-33-C-Cy5: MCaUF22-33-C (SEQ ID NO: 145) labeled with Cy5 (KRRGTNIEKR[Abu]RC(Cy5″))
CHO cells [2]
  Rhodamine-positive staining also Cy5-positive (pixels): best performing
CHO cells [2]; confocal microscopy
  intracellular / plasma membrane distribution: direct plasma membrane labeling

## MCaUF25-33-C-Cy5: MCaUF25-33-C (SEQ ID NO: 146) labeled with Cy5 (GTNIEKR[Abu]RC(Cy5″))
CHO cells [2]; confocal microscopy
  intracellular / plasma membrane distribution: dots appear at higher concentrations within one pole of the cell; also recorded: Diffuse membrane labeling
CHO cells [3]
  amiloride-sensitivity of cell penetration: higher amiloride-sensitivity than MCaUF1-33-C-Cy5

## SEKDalKHLQR (SEKD[Abu]IKHLQR) [HadUF1-11]
F98 cell line; 1 μM peptide
  penetration compared with 3 μM Tat: proved better CPP than Tat at 3 μM
F98 rat glioma cell line
  cell penetration (CPP efficiency): ones of the best performing CPPs
F98 rat glioma cell line; listed as HadUF1-11(Abu5)
  cell penetration (CPP efficiency): perform better as CPP than the maurocalcine derived peptide MCaUF1-9(Abu3)

## SKKaKRRGTNIEKRaR (SKK[Abu]KRRGTNIEKR[Abu]R) [MCaUF18-33]
CHO cells [3]
  amiloride-sensitivity of cell penetration: macropinocytosis entry-independent

## aLPHLKL ([Abu]LPHLKL) [MCaUF3-9]
F98 cell line; 1 μM peptide
  penetration compared with 3 μM Tat: proved better CPP than Tat at 3 μM
F98 rat glioma cell line
  cell penetration (CPP efficiency): ones of the best performing CPPs
F98 rat glioma cell line; listed as MCaUF3-9(Abu3)
  cell penetration (CPP efficiency): efficient CPP

Reference: US9439975B2, “Small efficient cell penetrating peptides derived from the scorpion toxin maurocalcine” (Commissariat A L'Energie Atomique Et Aux Energies …, priority 2011, dated 2016)
